15 compounds from patent US5847153A, “β-sulfonyl hydroxamic acids” (Pharmacia & Upjohn Company, priority 1997, dated 1998) can be followed below.

One test addresses Stromelysin (Homo sapiens, UniProt P08254). Put plainly: in vitro particle concentration fluorescence assay, inhibition of stromelysin. It counts as biochemical. As to conditions: pH 7.5, room temperature, read-out: Stromelysin Ki (MMP Inhibition Constants). The procedure:
(§1) Inhibitory activity is evaluated in one or more of the MMP enzymes (stromelysin, gelatinase, and collagenase) in vitro using particle concentration fluorescence assay. An inhibitor binds to MMP enzymes which prevents the degradation of a substrate by stromelysin, gelatinase, or collagenase. The substrate has attached to it a fluorescein and a biotin moiety. The intact substrate then binds to an avidin-coated particle via the biotin moiety. Once the particle is washed and dried, a fluorescent signal is generated since the fluorescent group is attached to the particle. Without an inhibitor present, the substrate is degraded by MMP enzymes and the fluorescein group is removed, therefore, no fluorescent signal can be detected. Testing compounds are dissolved in DMSO to the desired concentration, then the solutions are diluted to 1:5 with MMP buffer (50 mM Tris-HCl, pH 7.5; 150 mM NaCl; 0.02% NaN3). Serial two-fold dilutions of each compound are prepared. A concentrated, activated enzyme solution is transferred into each plate of the testing compounds, and the mixture is incubated at room temperature for 15 minutes. Thawed MMP substrate is then added into all plates, and the plates are incubated in the dark for 1-3 hours at room temperature. At this point, the substrate mixture is mixed with 0.1% avidin-coated polystyrene particles. After 15 minutes, the fluorescence values are measured following filtration and washing of the beads. Ki values are then calculated.

Another test has as its target Gelatinase. Description: in vitro particle concentration fluorescence assay, inhibition of gelatinase. The format is biochemical. As to conditions: pH 7.5, room temperature, read-out: Gelatinase Ki (MMP Inhibition Constants). How it is done: as §1

Structures are written as SMILES.

Sequence of Stromelysin (P08254 100-477): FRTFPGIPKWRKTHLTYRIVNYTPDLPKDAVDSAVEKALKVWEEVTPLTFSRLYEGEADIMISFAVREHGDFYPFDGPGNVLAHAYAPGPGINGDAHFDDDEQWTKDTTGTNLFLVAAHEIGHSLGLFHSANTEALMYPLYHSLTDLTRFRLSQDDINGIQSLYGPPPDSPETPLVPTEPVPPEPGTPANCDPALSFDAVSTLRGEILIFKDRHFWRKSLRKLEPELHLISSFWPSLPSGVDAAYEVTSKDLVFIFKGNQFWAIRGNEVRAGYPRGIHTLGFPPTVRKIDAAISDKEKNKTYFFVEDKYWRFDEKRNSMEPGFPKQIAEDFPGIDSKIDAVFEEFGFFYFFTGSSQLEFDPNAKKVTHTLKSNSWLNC

One may read the Ki as a dissociation constant, usually derived from enzyme kinetics or from competition with a known ligand. For `CC(CS(=O)(=O)c1ccccc1)C(=O)NO` (stereo not drawn) [Example 3, N-hydroxy 2-[(benzenesulfonyl)methyl]-propionamide], the Ki on Stromelysin stood at 3600 nM; on Gelatinase, 81 nM.

On to `COc1ccc(S(=O)(=O)CC(CS(=O)(=O)c2ccc(OC)cc2)C(=O)NO)cc1` [Example 4, N-hydroxy-2-[(4-methoxybenzene-sulfonyl)methyl]-3-(4-methoxybenzenesulfonyl)-propionamide], for which the figures for the Ki on Stromelysin and on Gelatinase were 3.9 nM and 0.19 nM, respectively.

Consider `Cc1ccc(S(=O)(=O)CC(CS(=O)(=O)c2ccc(C)cc2)C(=O)NO)cc1` [Example 9, N-hydroxy-2-[(4-methylbenzenesulfonyl)methyl]-3-(4-methylbenzenesulfonyl)-propionamide], for which the figures for the Ki at Stromelysin and at Gelatinase were 130 nM and 3.8 nM, respectively.

`COc1ccc(S(=O)(=O)CC(Cc2ccccc2)C(=O)NO)cc1` (stereo not drawn) [Example 1, N-hydroxy 2-[(4-methoxybenzenesulfonyl)methyl]-3-phenyl-propionamide]: the Ki at Stromelysin was 49 nM; on Gelatinase it was 9.2 nM.

On to `CCCCN1CC(=O)N(CC(CS(=O)(=O)c2ccc(OC)cc2)C(=O)NO)C1=O` (stereo not drawn) [Example 15, N-hydroxy-2-[methyl-3-(1-butylhydantoin)]-3-(4-methoxybenzenesulfonyl)-propionamide], for which the values for the Ki on Stromelysin and on Gelatinase were 9 nM and 0.34 nM, respectively.

With `O=C(NO)C(CS(=O)(=O)c1ccccc1)CS(=O)(=O)c1ccccc1` [Example 10, N-hydroxy-2-[(benzenesulfonyl)methyl]-3-(benzenesulfonyl)-propionamide], the Ki amounted to 160 nM on Stromelysin and 8 nM at Gelatinase.

Regarding `COc1ccc(S(=O)(=O)CC(CN2C(=O)CN(C)C2=O)C(=O)NO)cc1` (stereo not drawn) [Example 13, N-hydroxy-2-[methyl-3-(1-methylhydantoin)]-3-(4-methoxybenzenesulfonyl)-propionamide], the Ki worked out at 17 nM at Stromelysin and 1.3 nM on Gelatinase.

`O=C(NO)C(CS(=O)(=O)c1ccc(Cl)cc1)CS(=O)(=O)c1ccc(Cl)cc1` [Example 5, N-hydroxy-2-[(4-chlorobenzenesulfonyl)methyl]-3-(4-chlorobenzenesulfonyl)-propionamide]: the Ki at Stromelysin is 72 nM; on Gelatinase, 1.9 nM.

For the compound `CCCCCCCCS(=O)(=O)CC(CS(=O)(=O)CCCCCCCC)C(=O)NO` [Example 8, N-hydroxy-2-[(n-octylsulfonyl)methyl]-3-(n-octylsulfonyl)-propionamide], the figures for the Ki on Stromelysin and on Gelatinase were 440 nM and 190 nM, respectively.

On to `CCCCCCCCS(=O)(=O)CC(CS(=O)(=O)c1ccc(OC)cc1)C(=O)NO` (racemic) [Example 12, N-hydroxy-2-(n-octylsulfonylmethyl)-3-(4-methoxybenzenesulfonyl)-propionamide], for which the values for the inhibitory constant (Ki) on Stromelysin and at Gelatinase were 5.4 nM and 0.82 nM, respectively.

On to `O=C(NO)C(Cc1ccccc1)CS(=O)(=O)c1ccccc1` (stereo not drawn) [Example 2, N-hydroxy 2-[(benzenesulfonyl)methyl]-3-phenyl-propionamide], for which the Ki on Stromelysin is 1100 nM; at Gelatinase it was 87 nM.

For `COc1ccc(S(=O)(=O)CCCC(CS(=O)(=O)c2ccc(OC)cc2)C(=O)NO)cc1` (stereo not drawn) [Example 11, N-hydroxy-2-[(4-methoxybenzenesulfonyl)-methyl]-5-(4-methoxybenzenesulfonyl)-pentanamide], the Ki at Stromelysin and at Gelatinase was 1 nM in each case.

Turning to `CCCCS(=O)(=O)CC(CS(=O)(=O)CCCC)C(=O)NO` [Example 7, N-hydroxy-2-[(n-butylsulfonyl)methyl]-3-(n-butylsulfonyl)-propionamide], the Ki stood at 1000 nM at Stromelysin and 350 nM on Gelatinase.

For the compound `O=C(NO)C(CS(=O)(=O)c1ccc(Br)cc1)CS(=O)(=O)c1ccc(Br)cc1` [Example 6, N-hydroxy-2-[(4-bromobenzenesulfonyl)methyl]-3-(4-bromobenzenesulfonyl)-propionamide], the Ki on Stromelysin worked out at 92 nM; at Gelatinase, 2.5 nM.

For the compound `CCCCOc1ccc(S(=O)(=O)CC(CN2C(=O)CN(CCCC)C2=O)C(=O)NO)cc1` (stereo not drawn) [Example 14, N-hydroxy-2-[methyl-3-(1-butylhydantoin)]-3-(4-butoxybenzenesulfonyl)-propionamide], the Ki at Stromelysin came out at 1.8 nM; on Gelatinase, 0.092 nM.
